Each block holds one molecule with its values, some of them ahead of it. Active and inactive are the calls of the source.
Legend:
[1] = biological target: T1, Histone-lysine N-methyltransferase NSD2 (Homo sapiens, UniProt O96028); type: biochemical
T1 sequence (O96028 whole entry): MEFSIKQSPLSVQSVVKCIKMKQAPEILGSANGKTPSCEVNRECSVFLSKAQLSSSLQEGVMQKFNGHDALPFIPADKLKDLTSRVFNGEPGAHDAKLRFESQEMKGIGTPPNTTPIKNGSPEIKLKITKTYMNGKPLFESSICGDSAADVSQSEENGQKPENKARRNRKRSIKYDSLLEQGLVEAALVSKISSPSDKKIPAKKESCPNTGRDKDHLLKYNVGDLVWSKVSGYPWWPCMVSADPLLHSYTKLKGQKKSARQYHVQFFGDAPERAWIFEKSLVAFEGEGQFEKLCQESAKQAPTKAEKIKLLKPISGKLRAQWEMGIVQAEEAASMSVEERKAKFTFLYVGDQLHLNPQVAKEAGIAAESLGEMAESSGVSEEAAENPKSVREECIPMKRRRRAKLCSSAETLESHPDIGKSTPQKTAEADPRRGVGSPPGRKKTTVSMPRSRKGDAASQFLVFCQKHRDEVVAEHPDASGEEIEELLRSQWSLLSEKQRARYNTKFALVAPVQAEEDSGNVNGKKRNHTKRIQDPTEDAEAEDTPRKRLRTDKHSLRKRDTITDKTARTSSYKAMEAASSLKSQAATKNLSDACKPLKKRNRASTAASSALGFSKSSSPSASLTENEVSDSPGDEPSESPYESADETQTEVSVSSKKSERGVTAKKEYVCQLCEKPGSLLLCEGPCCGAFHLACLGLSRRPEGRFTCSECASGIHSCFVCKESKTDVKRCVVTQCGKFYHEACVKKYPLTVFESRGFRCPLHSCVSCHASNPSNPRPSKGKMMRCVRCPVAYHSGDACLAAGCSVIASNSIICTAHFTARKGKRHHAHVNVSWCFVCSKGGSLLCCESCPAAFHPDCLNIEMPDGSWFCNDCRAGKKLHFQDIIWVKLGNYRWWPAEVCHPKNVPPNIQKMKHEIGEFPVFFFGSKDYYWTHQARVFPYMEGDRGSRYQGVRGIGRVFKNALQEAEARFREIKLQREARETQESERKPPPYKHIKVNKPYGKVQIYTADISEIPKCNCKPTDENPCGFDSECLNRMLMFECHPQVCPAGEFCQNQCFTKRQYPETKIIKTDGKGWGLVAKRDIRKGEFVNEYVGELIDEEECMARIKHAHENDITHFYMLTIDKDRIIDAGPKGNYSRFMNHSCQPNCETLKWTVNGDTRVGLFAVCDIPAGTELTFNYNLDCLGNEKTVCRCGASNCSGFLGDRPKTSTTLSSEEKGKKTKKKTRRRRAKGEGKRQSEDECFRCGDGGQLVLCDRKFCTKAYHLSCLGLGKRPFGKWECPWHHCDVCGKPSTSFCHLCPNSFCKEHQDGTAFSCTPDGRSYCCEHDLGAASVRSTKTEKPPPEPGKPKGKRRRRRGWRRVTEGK

[2] = biological target: ALK tyrosine kinase receptor (Homo sapiens, UniProt Q9UM73); type: functional;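 also: ALK tested as one member of a kinase panel screen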
[3] = biological target: Tyrosine-protein kinase Lck (Homo sapiens, UniProt P06239); type: functional;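 also: lck was assayed as one member of a kinase panel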
[4] = biological target: Serine/threonine-protein kinase pim-1 (Homo sapiens, UniProt P11309); type: functional
[5] = biological target: Casein kinase I isoform alpha (Homo sapiens, UniProt P48729); type: functional
Activated CDC42 kinase 1 = Activated CDC42 kinase 1 (Homo sapiens, UniProt Q07912); assay: Navigating the Kinome. Panel member name: ACK1; type: functional
[6] = biological target: Rho-associated protein kinase 1 (Homo sapiens, UniProt Q13464); type: functional;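 also: measured within a broad kinome-wide panel profiling many kinases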
[7] = biological target: Mitogen-activated protein kinase kinase kinase kinase 4 (Homo sapiens, UniProt O95819); type: functional
[8] = biological target: Macrophage colony-stimulating factor 1 receptor (Homo sapiens, UniProt P07333); type: functional;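 also: value comes from the Navigating the Kinome screening panel, CSF1R member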
[9] = biological target: Dual specificity mitogen-activated protein kinase kinase 2 (Homo sapiens, UniProt P36507); assay: Navigating the Kinome. Panel member name: MAP2K2; type: functional
[10] = biological target: Dual specificity tyrosine-phosphorylation-regulated kinase 1A (Homo sapiens, UniProt Q13627); type: functional;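 also: measured against DYRK1A as one member of a broad kinome profiling panel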
[11] = biological target: Inhibitor of nuclear factor kappa-B kinase subunit epsilon (Homo sapiens, UniProt Q14164); assay: Navigating the Kinome. Panel member name: IKBKE; type: functional
[12] = biological target: Leukocyte tyrosine kinase receptor (Homo sapiens, UniProt P29376); assay: Navigating the Kinome. Panel member name: LTK; type: functional
[13] = system: Streptococcus sp. 'group A'; assay: growth inhibition of control SK(-) GAS strain, dose response, counter-screen for streptokinase expression inhibitor project, luminescence, kanamycin, BacTiterGlo, confirmation (AID 1900); type: functional, organism-based
Caspase-3 = biological target: T2, Caspase-3 (Homo sapiens, UniProt P42574); type: functional;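 also: Dose-response selectivity test against caspase-3 for candidate inhibitors of sentrin-specific proteases (SENPs)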
T2 sequence (P42574 whole entry): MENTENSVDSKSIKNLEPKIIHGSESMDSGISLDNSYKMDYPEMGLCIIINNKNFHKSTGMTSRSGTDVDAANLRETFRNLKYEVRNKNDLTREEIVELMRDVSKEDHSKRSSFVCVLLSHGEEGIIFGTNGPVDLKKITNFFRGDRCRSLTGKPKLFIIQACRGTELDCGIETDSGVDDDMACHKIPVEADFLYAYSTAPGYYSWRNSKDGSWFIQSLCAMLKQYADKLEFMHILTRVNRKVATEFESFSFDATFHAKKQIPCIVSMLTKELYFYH

Sequence of Casein kinase I isoform alpha (P48729 whole entry, canonical isoform): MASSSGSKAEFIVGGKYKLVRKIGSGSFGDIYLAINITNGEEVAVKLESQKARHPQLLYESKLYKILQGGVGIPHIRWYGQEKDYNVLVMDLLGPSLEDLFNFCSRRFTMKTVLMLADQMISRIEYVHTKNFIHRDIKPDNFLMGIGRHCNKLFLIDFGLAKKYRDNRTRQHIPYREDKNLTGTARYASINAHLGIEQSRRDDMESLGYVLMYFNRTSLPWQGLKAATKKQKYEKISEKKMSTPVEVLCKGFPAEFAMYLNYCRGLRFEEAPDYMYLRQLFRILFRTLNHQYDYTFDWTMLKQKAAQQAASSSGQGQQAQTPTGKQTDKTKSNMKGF
Sequence of Activated CDC42 kinase 1 (Q07912 whole entry): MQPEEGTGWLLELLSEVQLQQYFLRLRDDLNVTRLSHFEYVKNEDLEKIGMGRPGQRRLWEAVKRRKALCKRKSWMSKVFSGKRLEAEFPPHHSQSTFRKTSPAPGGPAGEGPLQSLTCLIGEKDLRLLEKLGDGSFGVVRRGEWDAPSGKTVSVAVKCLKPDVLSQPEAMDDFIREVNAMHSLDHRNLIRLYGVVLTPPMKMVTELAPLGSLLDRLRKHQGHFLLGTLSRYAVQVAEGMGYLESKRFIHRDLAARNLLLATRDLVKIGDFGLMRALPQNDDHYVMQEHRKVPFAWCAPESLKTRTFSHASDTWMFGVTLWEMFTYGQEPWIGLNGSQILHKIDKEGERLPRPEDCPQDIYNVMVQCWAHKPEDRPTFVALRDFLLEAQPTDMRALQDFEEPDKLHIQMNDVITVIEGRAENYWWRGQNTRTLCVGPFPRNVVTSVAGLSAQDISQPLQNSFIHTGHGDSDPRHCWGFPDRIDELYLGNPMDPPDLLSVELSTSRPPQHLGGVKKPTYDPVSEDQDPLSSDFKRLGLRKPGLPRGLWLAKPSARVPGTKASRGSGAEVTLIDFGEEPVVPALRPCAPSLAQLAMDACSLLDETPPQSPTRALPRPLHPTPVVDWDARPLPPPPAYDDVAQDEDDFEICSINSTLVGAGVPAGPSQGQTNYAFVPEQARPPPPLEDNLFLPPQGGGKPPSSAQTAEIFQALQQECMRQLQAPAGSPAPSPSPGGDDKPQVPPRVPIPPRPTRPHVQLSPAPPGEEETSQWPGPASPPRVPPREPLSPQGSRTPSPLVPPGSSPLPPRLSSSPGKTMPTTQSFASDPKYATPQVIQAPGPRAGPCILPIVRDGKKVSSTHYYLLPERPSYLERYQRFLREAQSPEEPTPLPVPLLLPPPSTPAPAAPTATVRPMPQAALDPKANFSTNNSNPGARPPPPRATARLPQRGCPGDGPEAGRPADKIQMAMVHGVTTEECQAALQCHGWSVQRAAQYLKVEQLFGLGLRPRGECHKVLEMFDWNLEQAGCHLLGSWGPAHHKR
Sequence of Dual specificity mitogen-activated protein kinase kinase 2 (P36507 whole entry): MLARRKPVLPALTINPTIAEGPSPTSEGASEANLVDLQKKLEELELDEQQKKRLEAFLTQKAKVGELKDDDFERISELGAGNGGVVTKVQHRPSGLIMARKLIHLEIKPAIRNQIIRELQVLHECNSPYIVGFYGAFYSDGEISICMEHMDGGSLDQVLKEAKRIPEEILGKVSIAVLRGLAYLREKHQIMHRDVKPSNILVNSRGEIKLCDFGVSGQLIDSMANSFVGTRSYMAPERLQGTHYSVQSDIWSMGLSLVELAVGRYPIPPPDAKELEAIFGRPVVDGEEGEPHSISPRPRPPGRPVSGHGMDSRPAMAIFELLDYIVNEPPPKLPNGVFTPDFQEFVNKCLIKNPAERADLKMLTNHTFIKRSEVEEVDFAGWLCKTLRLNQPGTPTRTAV
Sequence of ALK tyrosine kinase receptor (Q9UM73 whole entry): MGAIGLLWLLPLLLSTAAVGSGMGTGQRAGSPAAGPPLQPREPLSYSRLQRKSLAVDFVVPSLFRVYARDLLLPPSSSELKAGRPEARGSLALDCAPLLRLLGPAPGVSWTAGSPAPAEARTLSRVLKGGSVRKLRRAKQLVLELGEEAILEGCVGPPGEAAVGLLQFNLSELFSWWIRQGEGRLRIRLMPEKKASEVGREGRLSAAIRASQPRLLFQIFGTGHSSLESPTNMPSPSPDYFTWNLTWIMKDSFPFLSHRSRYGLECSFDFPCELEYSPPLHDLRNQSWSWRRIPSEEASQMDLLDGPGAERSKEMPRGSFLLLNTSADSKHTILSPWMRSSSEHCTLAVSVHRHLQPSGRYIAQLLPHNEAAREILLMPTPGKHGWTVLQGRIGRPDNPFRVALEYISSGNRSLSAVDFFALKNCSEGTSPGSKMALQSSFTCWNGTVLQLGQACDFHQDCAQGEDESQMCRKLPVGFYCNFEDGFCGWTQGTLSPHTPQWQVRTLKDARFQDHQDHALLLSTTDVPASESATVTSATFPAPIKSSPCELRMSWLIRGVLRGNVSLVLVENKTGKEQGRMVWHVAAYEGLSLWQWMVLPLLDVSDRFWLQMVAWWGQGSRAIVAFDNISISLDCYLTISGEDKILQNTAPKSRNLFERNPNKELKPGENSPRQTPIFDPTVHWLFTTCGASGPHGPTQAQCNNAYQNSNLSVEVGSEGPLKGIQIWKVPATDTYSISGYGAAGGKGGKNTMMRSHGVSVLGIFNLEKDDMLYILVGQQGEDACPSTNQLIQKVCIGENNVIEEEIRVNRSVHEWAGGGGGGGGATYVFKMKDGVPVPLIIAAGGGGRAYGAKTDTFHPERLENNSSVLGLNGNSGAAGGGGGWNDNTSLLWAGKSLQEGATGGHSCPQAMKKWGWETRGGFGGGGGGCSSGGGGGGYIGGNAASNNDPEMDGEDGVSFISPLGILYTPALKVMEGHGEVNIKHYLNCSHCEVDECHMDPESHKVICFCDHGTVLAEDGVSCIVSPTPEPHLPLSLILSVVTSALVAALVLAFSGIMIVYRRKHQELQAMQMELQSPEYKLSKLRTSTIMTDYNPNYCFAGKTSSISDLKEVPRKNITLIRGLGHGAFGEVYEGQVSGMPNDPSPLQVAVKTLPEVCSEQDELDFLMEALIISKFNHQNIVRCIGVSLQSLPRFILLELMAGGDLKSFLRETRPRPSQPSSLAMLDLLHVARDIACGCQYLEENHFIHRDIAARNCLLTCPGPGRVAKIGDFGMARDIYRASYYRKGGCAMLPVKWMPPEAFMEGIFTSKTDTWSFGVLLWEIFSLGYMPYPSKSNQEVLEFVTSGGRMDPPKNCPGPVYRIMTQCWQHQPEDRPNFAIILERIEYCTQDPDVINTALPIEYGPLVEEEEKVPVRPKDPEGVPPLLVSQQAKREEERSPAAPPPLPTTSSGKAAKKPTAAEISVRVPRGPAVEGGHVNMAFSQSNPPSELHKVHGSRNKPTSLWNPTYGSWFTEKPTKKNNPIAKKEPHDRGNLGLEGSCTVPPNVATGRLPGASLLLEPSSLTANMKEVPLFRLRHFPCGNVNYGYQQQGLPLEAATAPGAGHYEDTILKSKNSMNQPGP
Sequence of Inhibitor of nuclear factor kappa-B kinase subunit epsilon (Q14164 whole entry): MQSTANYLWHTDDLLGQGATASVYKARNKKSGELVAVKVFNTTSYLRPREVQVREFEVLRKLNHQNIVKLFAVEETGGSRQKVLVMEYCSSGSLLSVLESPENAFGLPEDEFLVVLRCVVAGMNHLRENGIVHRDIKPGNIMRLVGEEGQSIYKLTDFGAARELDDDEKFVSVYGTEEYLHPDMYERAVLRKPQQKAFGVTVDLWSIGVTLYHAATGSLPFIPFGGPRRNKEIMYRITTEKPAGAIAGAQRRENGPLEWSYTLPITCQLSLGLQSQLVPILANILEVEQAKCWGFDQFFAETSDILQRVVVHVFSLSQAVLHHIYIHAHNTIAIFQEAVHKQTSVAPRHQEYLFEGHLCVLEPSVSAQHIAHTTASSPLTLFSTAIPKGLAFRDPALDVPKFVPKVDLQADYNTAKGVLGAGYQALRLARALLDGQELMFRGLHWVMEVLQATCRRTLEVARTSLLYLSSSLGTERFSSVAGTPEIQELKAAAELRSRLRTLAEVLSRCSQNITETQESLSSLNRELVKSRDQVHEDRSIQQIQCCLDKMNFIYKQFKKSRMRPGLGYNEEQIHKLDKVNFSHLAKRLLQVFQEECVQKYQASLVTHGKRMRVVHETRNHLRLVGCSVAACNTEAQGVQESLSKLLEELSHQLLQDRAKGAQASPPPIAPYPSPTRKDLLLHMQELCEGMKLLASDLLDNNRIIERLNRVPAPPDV
Sequence of Leukocyte tyrosine kinase receptor (P29376 whole entry): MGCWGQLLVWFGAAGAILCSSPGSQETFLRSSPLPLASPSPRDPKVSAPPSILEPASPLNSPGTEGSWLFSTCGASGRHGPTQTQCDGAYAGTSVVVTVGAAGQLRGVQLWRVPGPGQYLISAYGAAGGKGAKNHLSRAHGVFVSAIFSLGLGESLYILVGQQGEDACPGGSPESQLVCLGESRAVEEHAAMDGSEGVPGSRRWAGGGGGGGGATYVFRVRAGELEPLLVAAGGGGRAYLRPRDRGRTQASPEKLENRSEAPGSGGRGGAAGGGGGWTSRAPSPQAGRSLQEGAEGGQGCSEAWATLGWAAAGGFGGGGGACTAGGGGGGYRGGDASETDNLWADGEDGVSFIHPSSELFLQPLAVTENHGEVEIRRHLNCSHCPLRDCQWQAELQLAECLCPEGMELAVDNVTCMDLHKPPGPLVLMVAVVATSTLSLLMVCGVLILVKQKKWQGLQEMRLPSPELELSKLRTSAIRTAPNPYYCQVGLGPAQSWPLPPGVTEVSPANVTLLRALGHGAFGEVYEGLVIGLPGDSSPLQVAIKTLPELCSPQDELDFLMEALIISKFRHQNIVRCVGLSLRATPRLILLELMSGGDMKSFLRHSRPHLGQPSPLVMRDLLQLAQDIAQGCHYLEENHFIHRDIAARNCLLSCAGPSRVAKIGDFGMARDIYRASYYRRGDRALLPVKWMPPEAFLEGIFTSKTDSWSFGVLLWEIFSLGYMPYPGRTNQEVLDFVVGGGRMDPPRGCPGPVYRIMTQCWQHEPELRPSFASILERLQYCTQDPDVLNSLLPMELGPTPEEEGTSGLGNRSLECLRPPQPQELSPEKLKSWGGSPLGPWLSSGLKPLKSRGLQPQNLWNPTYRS

Structure (SMILES): O=C(Cc1ccccc1Cl)NC1(O)C(=O)c2ccccc2C1=O
- AC50 [1]: 8.16 µM (active)

- Ki [2]: > 6.31 µM (inactive)
- Ki [3]: > 6.31 µM (inactive)
- Ki [4]: > 3.98 µM (inactive)
- Ki [5]: > 2.51 µM (inactive)
- Ki (Activated CDC42 kinase 1): > 3.98 µM (inactive)
- Ki [6]: > 0.316 µM (inactive)
- Ki [7]: 2.51 µM (active)
- Ki [8]: > 2.51 µM (inactive)
- Ki [9]: > 3.98 µM (inactive)
- Ki [10]: 0.251 µM (active)
- Ki [11]: > 3.16 µM (inactive)
- Ki [12]: > 2.51 µM (inactive)
Structure (SMILES): O=C(Nc1cc(-c2c[nH]c3ncccc23)cc(Cl)n1)c1ccccc1

Structure (SMILES): CNC[C@H](Cc1ccccc1)NC[C@@H](Cc1cccc2ccccc12)NCCc1ccc(C)cc1
- EC50 [13]: 4.79 µM (active)

- Ki [2]: > 6.31 µM (inactive)
- Ki [3]: 0.0316 µM (active)
- Ki [4]: > 6.31 µM (inactive)
- Ki [5]: > 3.98 µM (inactive)
- Ki (Activated CDC42 kinase 1): 0.2 µM (active)
- Ki [6]: > 3.98 µM (inactive)
- Ki [7]: > 5.01 µM (inactive)
- Ki [8]: 0.0631 µM (active)
- Ki [9]: > 3.98 µM (inactive)
- Ki [10]: > 2 µM (inactive)
- Ki [11]: > 3.16 µM (inactive)
- Ki [12]: > 2.51 µM (inactive)
Structure (SMILES): Nc1c(-c2ccc(NC(=O)Nc3cccc(C(F)(F)F)c3)cc2)cnc2c(-c3ccc4c(c3)OCO4)cnn12

Structure (SMILES): CCN1C(=Cc2sc3ccccc3[n+]2C)C=Cc2cccc(C)c21
- EC50 [13]: 4.08 µM (active)

- IC50 (Caspase-3): 14.3 µM (active)
- AC50 [1]: 16.5 µM (active)
Structure (SMILES): Nc1nnc2c(n1)CCCC2

Structure (SMILES): O=C(N/N=C/c1c(O)ccc2ccccc12)c1[nH]ncc1Br
- IC50 (Caspase-3): 27.7 µM (active)

Reference: ChEMBL document CHEMBL1201862, “PubChem BioAssay data set” (2004)
